Reference: ChEMBL document CHEMBL3885881, “DrugMatrix”

Species: Rattus norvegicus
Assay: DrugMatrix - Regimen: Daily Repeat
Format: toxicity, organism-based, Sprague-Dawley
Design: regimen Daily Repeat, gender Male, age 6-8 weeks
Details: in vivo, po, route oral GAVAGE, vehicle 100 % WATER; for ABSOLUTE BASOPHIL / ABSOLUTE EOSINOPHIL / ABSOLUTE LYMPHOCYTE / ABSOLUTE MONOCYTE / ABSOLUTE SEGMENTED NEUTROPHIL / BASOPHIL / EOSINOPHIL / ERYTHROCYTE COUNT / HEMATOCRIT / HEMOGLOBIN / LEUKOCYTE COUNT / LYMPHOCYTE / MEAN CORPUSCULAR HEMOGLOBIN / MEAN CORPUSCULAR HEMOGLOBIN CONCENTRATION / MEAN CORPUSCULAR VOLUME / MONOCYTE / NEUTROPHIL / NUCLEATED RED BLOOD CELLS / PLATELET COUNT: tissue Blood; for ALANINE AMINOTRANSFERASE / ALBUMIN / ALKALINE PHOSPHATASE / ASPARTATE AMINOTRANSFERASE / BLOOD UREA NITROGEN / CARBON DIOXIDE / CHLORIDE / CHOLESTEROL / CREATINE PHOSPHOKINASE / CREATININE / GLUCOSE / LACTATE DEHYDROGENASE / LIPASE / PHOSPHORUS / POTASSIUM / SODIUM / TOTAL BILIRUBIN / TOTAL PROTEIN / URIC ACID: tissue Plasma
[1] = 4 mg/kg, 72 h, dose level Low, time 3 day
[2] = 4 mg/kg, 120 h, dose level Low, time 5 day
[3] = 1100 mg/kg, 72 h, dose level High, time 3 day
[4] = 1100 mg/kg, 120 h, dose level High, time 5 day

COc1ccnc(C[S+]([O-])c2nc3ccc(OC(F)F)cc3[nH]2)c1OC (configuration not stated) [PANTOPRAZOLE]
ABSOLUTE BASOPHIL [1]: 0 CELLS/uL
ABSOLUTE EOSINOPHIL [1]: 0 CELLS/uL
ABSOLUTE LYMPHOCYTE [1]: 12700.33 CELLS/uL
ABSOLUTE MONOCYTE [1]: 129 CELLS/uL
ABSOLUTE SEGMENTED NEUTROPHIL [1]: 970.67 CELLS/uL
BASOPHIL [1]: 0%
EOSINOPHIL [1]: 0%
ERYTHROCYTE COUNT [1]: 5.41 x10E6/uL
HEMATOCRIT [1]: 34.33%
HEMOGLOBIN [1]: 13.7 G/DL
LEUKOCYTE COUNT [1]: 13.8 x10E3/uL
LYMPHOCYTE [1]: 91.33%
MEAN CORPUSCULAR HEMOGLOBIN [1]: 25.37 pg
MEAN CORPUSCULAR HEMOGLOBIN CONCENTRATION [1]: 39.93 G/DL
MEAN CORPUSCULAR VOLUME [1]: 63.43 fL
MONOCYTE [1]: 1%
NEUTROPHIL [1]: 7.67%
NUCLEATED RED BLOOD CELLS [1]: 0.67 /100WBC
PLATELET COUNT [1]: 1322.33 x10E3/uL
ALANINE AMINOTRANSFERASE [1]: 47 u/L
ALBUMIN [1]: 4.07 G/DL
ALKALINE PHOSPHATASE [1]: 370.67 u/L
ASPARTATE AMINOTRANSFERASE [1]: 94 u/L
BLOOD UREA NITROGEN [1]: 15.67 mg/dL
CARBON DIOXIDE [1]: 25.67 mmol/L
CHLORIDE [1]: 102.67 MEQ/L
CHOLESTEROL [1]: 70.33 mg/dL
CREATINE PHOSPHOKINASE [1]: 679.33 u/L
CREATININE [1]: 0.14 mg/dL
GLUCOSE [1]: 153.67 mg/dL
LACTATE DEHYDROGENASE [1]: 404.33 u/L
LIPASE [1]: 9 u/L
PHOSPHORUS [1]: 13.8 mg/dL
POTASSIUM [1]: 7.04 MEQ/L
SODIUM [1]: 146.43 MEQ/L
TOTAL BILIRUBIN [1]: 0.23 mg/dL
TOTAL PROTEIN [1]: 5.67 G/DL
URIC ACID [1]: 1.7 mg/dL
ABSOLUTE BASOPHIL [2]: 0 CELLS/uL
ABSOLUTE EOSINOPHIL [2]: 43.33 CELLS/uL
ABSOLUTE LYMPHOCYTE [2]: 13938.33 CELLS/uL
ABSOLUTE MONOCYTE [2]: 59 CELLS/uL
ABSOLUTE SEGMENTED NEUTROPHIL [2]: 859.33 CELLS/uL
BASOPHIL [2]: 0%
EOSINOPHIL [2]: 0.33%
ERYTHROCYTE COUNT [2]: 5.27 x10E6/uL
HEMATOCRIT [2]: 34.2%
HEMOGLOBIN [2]: 13.7 G/DL
LEUKOCYTE COUNT [2]: 14.9 x10E3/uL
LYMPHOCYTE [2]: 93.33%
MEAN CORPUSCULAR HEMOGLOBIN [2]: 26.07 pg
MEAN CORPUSCULAR HEMOGLOBIN CONCENTRATION [2]: 40.07 G/DL
MEAN CORPUSCULAR VOLUME [2]: 65.03 fL
MONOCYTE [2]: 0.33%
NEUTROPHIL [2]: 6%
NUCLEATED RED BLOOD CELLS [2]: 0.33 /100WBC
PLATELET COUNT [2]: 1411.33 x10E3/uL
ALANINE AMINOTRANSFERASE [2]: 54.67 u/L
ALBUMIN [2]: 4.17 G/DL
ALKALINE PHOSPHATASE [2]: 396 u/L
ASPARTATE AMINOTRANSFERASE [2]: 114.33 u/L
BLOOD UREA NITROGEN [2]: 17.67 mg/dL
CARBON DIOXIDE [2]: 26 mmol/L
CHLORIDE [2]: 102 MEQ/L
CHOLESTEROL [2]: 60.67 mg/dL
CREATINE PHOSPHOKINASE [2]: 690.67 u/L
CREATININE [2]: 0.13 mg/dL
GLUCOSE [2]: 144 mg/dL
LACTATE DEHYDROGENASE [2]: 666.67 u/L
LIPASE [2]: 9 u/L
PHOSPHORUS [2]: 14.27 mg/dL
POTASSIUM [2]: 6.77 MEQ/L
SODIUM [2]: 143.77 MEQ/L
TOTAL BILIRUBIN [2]: 0.2 mg/dL
TOTAL PROTEIN [2]: 5.8 G/DL
URIC ACID [2]: 1.57 mg/dL
ABSOLUTE BASOPHIL [3]: 0 CELLS/uL
ABSOLUTE EOSINOPHIL [3]: 0 CELLS/uL
ABSOLUTE LYMPHOCYTE [3]: 16363.67 CELLS/uL
ABSOLUTE MONOCYTE [3]: 197 CELLS/uL
ABSOLUTE SEGMENTED NEUTROPHIL [3]: 1639.33 CELLS/uL
BASOPHIL [3]: 0%
EOSINOPHIL [3]: 0%
ERYTHROCYTE COUNT [3]: 5.69 x10E6/uL
HEMATOCRIT [3]: 35.37%
HEMOGLOBIN [3]: 14 G/DL
LEUKOCYTE COUNT [3]: 18.2 x10E3/uL
LYMPHOCYTE [3]: 90.33%
MEAN CORPUSCULAR HEMOGLOBIN [3]: 24.67 pg
MEAN CORPUSCULAR HEMOGLOBIN CONCENTRATION [3]: 39.57 G/DL
MEAN CORPUSCULAR VOLUME [3]: 62.3 fL
MONOCYTE [3]: 1%
NEUTROPHIL [3]: 8.67%
NUCLEATED RED BLOOD CELLS [3]: 0.33 /100WBC
PLATELET COUNT [3]: 1283.67 x10E3/uL
ALANINE AMINOTRANSFERASE [3]: 51.67 u/L
ALBUMIN [3]: 4.03 G/DL
ALKALINE PHOSPHATASE [3]: 372.67 u/L
ASPARTATE AMINOTRANSFERASE [3]: 89 u/L
BLOOD UREA NITROGEN [3]: 17 mg/dL
CARBON DIOXIDE [3]: 29 mmol/L
CHLORIDE [3]: 98.67 MEQ/L
CHOLESTEROL [3]: 105.67 mg/dL
CREATINE PHOSPHOKINASE [3]: 255 u/L
CREATININE [3]: 0.16 mg/dL
GLUCOSE [3]: 134.33 mg/dL
LACTATE DEHYDROGENASE [3]: 182.67 u/L
LIPASE [3]: 11 u/L
PHOSPHORUS [3]: 12.2 mg/dL
POTASSIUM [3]: 7.39 MEQ/L
SODIUM [3]: 142.4 MEQ/L
TOTAL BILIRUBIN [3]: 0.23 mg/dL
TOTAL PROTEIN [3]: 5.67 G/DL
URIC ACID [3]: 1.67 mg/dL
ABSOLUTE BASOPHIL [4]: 0 CELLS/uL
ABSOLUTE EOSINOPHIL [4]: 57.33 CELLS/uL
ABSOLUTE LYMPHOCYTE [4]: 9481.67 CELLS/uL
ABSOLUTE MONOCYTE [4]: 24 CELLS/uL
ABSOLUTE SEGMENTED NEUTROPHIL [4]: 670.33 CELLS/uL
BASOPHIL [4]: 0%
EOSINOPHIL [4]: 0.33%
ERYTHROCYTE COUNT [4]: 5.57 x10E6/uL
HEMATOCRIT [4]: 33.33%
HEMOGLOBIN [4]: 13.7 G/DL
LEUKOCYTE COUNT [4]: 10.23 x10E3/uL
LYMPHOCYTE [4]: 91.67%
MEAN CORPUSCULAR HEMOGLOBIN [4]: 24.57 pg
MEAN CORPUSCULAR HEMOGLOBIN CONCENTRATION [4]: 41.13 G/DL
MEAN CORPUSCULAR VOLUME [4]: 59.83 fL
MONOCYTE [4]: 0.33%
NEUTROPHIL [4]: 7.67%
NUCLEATED RED BLOOD CELLS [4]: 0 /100WBC
PLATELET COUNT [4]: 1302.33 x10E3/uL
ALANINE AMINOTRANSFERASE [4]: 40.33 u/L
ALBUMIN [4]: 4.33 G/DL
ALKALINE PHOSPHATASE [4]: 318 u/L
ASPARTATE AMINOTRANSFERASE [4]: 84 u/L
BLOOD UREA NITROGEN [4]: 14.67 mg/dL
CARBON DIOXIDE [4]: 27 mmol/L
CHLORIDE [4]: 102.5 MEQ/L
CHOLESTEROL [4]: 129.33 mg/dL
CREATINE PHOSPHOKINASE [4]: 241.33 u/L
CREATININE [4]: 0.19 mg/dL
GLUCOSE [4]: 122.33 mg/dL
LACTATE DEHYDROGENASE [4]: 148 u/L
LIPASE [4]: 11.67 u/L
PHOSPHORUS [4]: 9.87 mg/dL
POTASSIUM [4]: 5.71 MEQ/L
SODIUM [4]: 145.65 MEQ/L
TOTAL BILIRUBIN [4]: 0.27 mg/dL
TOTAL PROTEIN [4]: 6.13 G/DL
URIC ACID [4]: 0.47 mg/dL
